Data taken from ChEMBL document CHEMBL1122601, “Novel tetracyclic spiropiperidines. 4. Synthesis and pharmacological evaluation of spiro- and 6,7-dihydrospiro[benzo[b]pyrrolo[3,2,1-jk][1,4]benzodiazepine-2 (1H),4'-piperidine]s” (1984).

Experiments:
Assay type in all cases: functional
Mus musculus [1] = assay: Antidepressant activity by injecting 20 mg/kg of compound intraperitoneally and measuring the ability to prevent tetrabenazine (TBZ) induced ptosis in mice.; conditions: ip, route intraperitoneal
Mus musculus [2] = assay: Analgesic activity by injecting compound subcutaneously and measuring the inhibition of phenyl-p-benzoquinone-induced writhing (PQW) in mice.; conditions: sc
Mus musculus [3] = species: Mus musculus; assay: Antidepressant activity by injecting compound perorally and measuring the ability to prevent tetrabenazine (TBZ) induced ptosis in mice.
Mus musculus [4] = assay: Antidepressant activity by injecting compound intraperitoneally and measuring the ability to prevent tetrabenazine (TBZ) induced ptosis in mice.; conditions: ip

Row | SMILES | inhibition in vivo at 20 mg/kg (Mus musculus [1]) [%] | ED50 (Mus musculus [2]) [mg/kg] | ED50 (Mus musculus [3]) [mg/kg] | ED50 (Mus musculus [4]) [mg/kg]
1 | CN1CCC2(CC1)CN1c3ccccc3N=Cc3cccc2c31 | 20 | – | – | –
2 | CC1=Nc2ccccc2N2CC3(CCN(C)CC3)c3cccc1c32.Cl.Cl | 50 | 4.7 | – | –
3 | CC1Nc2ccccc2N2CC3(CCN(C)CC3)c3cccc1c32.Cl.Cl (stereo not drawn) | 20 | 9.73 | – | –
4 | CN1CCC2(CC1)CN(c1ccccc1N)c1ccccc12 | – | 11.6 | 1.9 | 4
